Test results as given in paper PMC10657444, “Design and evaluation of tadpole-like conformational antimicrobial peptides” (Communications Biology, 2023).
Where “and” joins values, the source holds several entries; their conditions need not be identical. Equal entries are not always repeated. Residues, ends and D or L forms follow the SMILES beside them.

Experiments:
[1] = test system: K. pneumoniae ATCC 700603; assay: microbe, parasite or virus in culture; assay type: cell-based, Klebsiella pneumoniae
Protocol: MRSA USA 300 and K. pneumoniae ATCC 700603 were employed to assess the development of resistance. From inoculated microtiter panels, an aliquot of the well with the highest concentration permitting growth was taken and back diluted in fresh media to a turbidity of a 0.5 McFarland standard. This suspension was then further diluted and used to inoculate a fresh MIC panel resulting in a final concentration of 5 × 10^6 CFU/mL. Panels were incubated according to CLSI guidelines (M07, 11th edition, 2018), MICs were recorded and the next inoculum was prepared from the well containing the highest concentration of drug that allowed growth in identical fashion as described above.

HEK293T cells = assay: MTT cytotoxicity assay; assay type: cell-based, human; conditions: for percent cell viability: HEK293T
MRSA USA 300 = assay: Time-kill assay; assay type: cell-based, Staphylococcus aureus
Protocol: Time-kill assays were done in tubes (in 1.5 mL of LB) and antibiotics at the 1 ×, 2 ×, 4 × and 8 × MIC. Tubes were inoculated (5 × 10^6 CFU/mL) with MRSA USA 300 and K. pneumoniae ATCC 700603 and incubated at 37 °C under shaking. Serial dilutions of the cultures were plated at each desired time point (0, 1, 3, 6, and 24 h), using a multichannel pipette as follows: in line 1 of a 96-well plate, 100 µL of bacterial suspension was added, while 90 µL of 0.9% sterile saline per well was added to the other lines. At selected time points, 100 µL of bacterial suspension was transferred from the time-kill assay plate to the first line. The wells were further diluted 1 in 10 (0.9% saline) for the appropriate number of dilutions and 10 μL of each dilution was spotted in duplicate onto MH agar plates, then incubated overnight at 37°C. The colonies in each spot were counted and used to calculate the number of viable CFU/mL remaining in the original culture by considering the dilution factors.

CC[C@H](C)[C@H](NC(=O)[C@H](CCCNC(=N)N)NC(=O)[C@H](CCCNC(=N)N)NC(=O)[C@H](CC(C)C)NC(=O)[C@H](Cc1ccccc1)NC(=O)[C@@H](N)CCCNC(=N)N)C(=O)N[C@@H](Cc1ccccc1)C(=O)N[C@@H](Cc1ccccc1)C(=O)N[C@@H](Cc1ccccc1)C(=O)N[C@@H](Cc1ccccc1)C(N)=O [HT2] (H-RFLRRIFFFF-NH2)
Concentration (MIC in drug resistance assay) ([1]; K. pneumoniae ATCC 700603, day 0): 6.25 mg/L
Concentration (MIC in drug resistance assay) ([1]; K. pneumoniae ATCC 700603, day 1): 6.25 mg/L
Concentration (MIC in drug resistance assay) ([1]; K. pneumoniae ATCC 700603, day 2): 6.25 mg/L
Concentration (MIC in drug resistance assay) ([1]; K. pneumoniae ATCC 700603, day 3): 12.5 mg/L
Concentration (MIC in drug resistance assay) ([1]; K. pneumoniae ATCC 700603, day 4): 12.5 mg/L
Concentration (MIC in drug resistance assay) ([1]; K. pneumoniae ATCC 700603, day 5): 6.25 mg/L
Concentration (MIC in drug resistance assay) ([1]; K. pneumoniae ATCC 700603, day 6): 6.25 mg/L
Concentration (MIC in drug resistance assay) ([1]; K. pneumoniae ATCC 700603, day 7): 6.25 mg/L
Concentration (MIC in drug resistance assay) ([1]; K. pneumoniae ATCC 700603, day 8): 6.25 mg/L
Concentration (MIC in drug resistance assay) ([1]; K. pneumoniae ATCC 700603, day 9): 6.25 mg/L
Concentration (MIC in drug resistance assay) ([1]; K. pneumoniae ATCC 700603, day 10): 12.5 mg/L
Concentration (MIC in drug resistance assay) ([1]; K. pneumoniae ATCC 700603, day 11): 12.5 mg/L
Concentration (MIC in drug resistance assay) ([1]; K. pneumoniae ATCC 700603, day 12): 12.5 mg/L
Concentration (MIC in drug resistance assay) ([1]; K. pneumoniae ATCC 700603, day 13): 12.5 mg/L
Concentration (MIC in drug resistance assay) ([1]; K. pneumoniae ATCC 700603, day 14): 25 mg/L
Concentration (MIC in drug resistance assay) ([1]; K. pneumoniae ATCC 700603, day 15): 25 mg/L
Concentration (MIC in drug resistance assay) ([1]; K. pneumoniae ATCC 700603, day 16): 25 mg/L
Concentration (MIC in drug resistance assay) ([1]; K. pneumoniae ATCC 700603, day 17): 25 mg/L
Concentration (MIC in drug resistance assay) ([1]; K. pneumoniae ATCC 700603, day 18): 12.5 mg/L
Concentration (MIC in drug resistance assay) ([1]; K. pneumoniae ATCC 700603, day 19): 25 mg/L
Concentration (MIC in drug resistance assay) ([1]; K. pneumoniae ATCC 700603, day 20): 25 mg/L
Concentration (MIC in drug resistance assay) ([1]; K. pneumoniae ATCC 700603, day 21): 25 mg/L
Concentration (MIC in drug resistance assay) ([1]; K. pneumoniae ATCC 700603, day 22): 12.5 mg/L
Concentration (MIC in drug resistance assay) ([1]; K. pneumoniae ATCC 700603, day 23): 25 mg/L
Concentration (MIC in drug resistance assay) ([1]; K. pneumoniae ATCC 700603, day 24): 50 mg/L
Concentration (MIC in drug resistance assay) ([1]; K. pneumoniae ATCC 700603, day 25): 25 mg/L
Concentration (MIC in drug resistance assay) ([1]; K. pneumoniae ATCC 700603, day 26): 25 mg/L
Concentration (MIC in drug resistance assay) ([1]; K. pneumoniae ATCC 700603, day 27): 25 mg/L
Concentration (MIC in drug resistance assay) ([1]; K. pneumoniae ATCC 700603, day 28): 25 mg/L
Concentration (MIC in drug resistance assay) ([1]; K. pneumoniae ATCC 700603, day 29): 25 mg/L
Concentration (MIC in drug resistance assay) ([1]; K. pneumoniae ATCC 700603, day 30): 50 mg/L
Concentration (MIC in drug resistance assay) ([1]; K. pneumoniae ATCC 700603, day 31): 25 mg/L
Concentration (MIC in drug resistance assay) ([1]; K. pneumoniae ATCC 700603, day 32): 25 mg/L
Concentration (MIC in drug resistance assay) ([1]; K. pneumoniae ATCC 700603, day 33): 25 mg/L
Concentration (MIC in drug resistance assay) ([1]; K. pneumoniae ATCC 700603, day 34): 12.5 mg/L
Concentration (MIC in drug resistance assay) ([1]; K. pneumoniae ATCC 700603, day 35): 25 mg/L
Concentration (MIC in drug resistance assay) ([1]; K. pneumoniae ATCC 700603, day 36): 25 mg/L
Concentration (MIC in drug resistance assay) ([1]; K. pneumoniae ATCC 700603, day 37): 50 mg/L
Concentration (MIC in drug resistance assay) ([1]; K. pneumoniae ATCC 700603, day 38): 25 mg/L
Concentration (MIC in drug resistance assay) ([1]; K. pneumoniae ATCC 700603, day 39): 25 mg/L
Concentration (MIC in drug resistance assay) ([1]; K. pneumoniae ATCC 700603, day 40): 25 mg/L
increase in MIC after 40 passages ([1]; serial passage at sub-MIC): four-fold
toxicity / cytotoxicity against HEK293T cells (in words) (HEK293T cells): did not present
percent cell viability (HEK293T cells; 6.25 µM): 93.7324 and 94.5028
percent cell viability (HEK293T cells; 12.5 µM): 96.2979 and 92.259
viable count, time-kill (MRSA USA 300; 2 × MIC, 0 h): 3600000 CFU/mL and 3500000 CFU/mL and 3200000 CFU/mL
viable count, time-kill (MRSA USA 300; 2 × MIC, 3 h): 3900000 CFU/mL and 3800000 CFU/mL
viable count, time-kill (MRSA USA 300; 2 × MIC, 6 h): 1700000 CFU/mL and 1900000 CFU/mL
viable count, time-kill (MRSA USA 300; 2 × MIC, 24 h): 910000 CFU/mL and 920000 CFU/mL and 890000 CFU/mL
viable count, time-kill (MRSA USA 300; 4 × MIC, 0 h): 3600000 CFU/mL and 3500000 CFU/mL and 3200000 CFU/mL
viable count, time-kill (MRSA USA 300; 4 × MIC, 1 h): 970000 CFU/mL and 1040000 CFU/mL and 1090000 CFU/mL
